Publication PMC8989888, “Development of optimized drug-like small molecule inhibitors of the SARS-CoV-2 3CL protease for treatment of COVID-19” (Nature Communications, 2022)
Several values for one entry are separate records, joined by “and”; a condition that tells them apart may be missing. Identical values can stand only once. Like-named read-outs stand apart in the source and are kept apart here.

Columns and labels:
SARS-CoV-2 [1] = test: microbe, parasite or virus in culture; assay type: cell-based; settings: Severe acute respiratory syndrome coronavirus 2, Vero C1008, read-out: SARS-CoV-2 Vero E6 EC50
SARS-CoV-2 [2] = test: microbe, parasite or virus in culture; assay type: cell-based; settings: for EC50: Severe acute respiratory syndrome coronavirus 2, 24 h, read-out: SARS-CoV-2 Huh-7ACE2 EC50
SARS-CoV-2 3CL protease [3] = molecular target: T1, SARS-CoV-2 3CL protease (Severe acute respiratory syndrome coronavirus 2, UniProt P0DTD1); test: biochemical; settings: for kinact/KI: read-out: SARS-CoV-2 3CLpro kinact/KI
SARS-CoV-2 3CL protease [4] = molecular target: T1, SARS-CoV-2 3CL protease; test: biochemical; settings: for IC50 / % SARS-CoV-2 3CL activity: 20 nM protease; for IC50: read-out: SARS-CoV-2 3CLpro IC50; for % SARS-CoV-2 3CL activity / Normalized SARS-CoV-2 3CL protease activity: replicates; for Normalized SARS-CoV-2 3CL protease activity: 0.2 µM protease with 50 µM tested compound
SARS-CoV-2 3CL protease [5] = molecular target: T1, SARS-CoV-2 3CL protease; test: cell-based
[6] = Concentration of inhibitor (nM) 0.19382
[7] = Concentration of inhibitor (nM) 0.49485
[8] = Concentration of inhibitor (nM) 0.79588
[9] = Concentration of inhibitor (nM) 1.09691
[10] = Concentration of inhibitor (nM) 1.39794
[11] = Concentration of inhibitor (nM) 1.69897
[12] = Concentration of inhibitor (nM) 2.30103
[13] = Concentration of inhibitor (nM) -0.10721
[14] = Concentration of inhibitor (nM) -0.40824

Structure (SMILES): CC(C)C[C@H](NC(=O)OCc1cccc2ccccc12)C(=O)N[C@@H](C[C@@H]1CCNC1=O)C(O)S(=O)(=O)O (some centres unmarked) [EB55]
- EC50 (SARS-CoV-2 [1]): 3000 nM
- inhibition of SARS-CoV-2 (Figure s17b dose-response, replicate values) (SARS-CoV-2 [2]): 100.856 and 96.5428 and 101.322 and 91.4468 and 90.1295 and 92.8292 and 65.5151 and 69.1898 and 72.8142 and 38.0936 and 42.5735 and 35.1981 and 28.1354 and 24.4902 and 21.8952 and 10.9114 and 19.9799 and 11.8441 and 9.792 and 14.2234 and 10.7567
- EC50 (SARS-CoV-2 [2]): 11 nM
- observed inactivation rate vs compound concentration (Figure S19, replicate values) (SARS-CoV-2 3CL protease [3]): 0.0457 and 0.0269 and 0.0571 and -0.0002 and 0.0258 and 0.0554 and 0.0425 and 0.0417 and 0.0134 and 0.0205 and 0.022 and 0.0066
- kinact/KI (SARS-CoV-2 3CL protease [3]): 21700 M⁻¹ s⁻¹
- IC50 (SARS-CoV-2 3CL protease [4]): 72 nM
- normalized activity, dose-response curve (Figure S16) (SARS-CoV-2 3CL protease [4]; [6]): 97.6947 and 91.9164
- normalized activity, dose-response curve (Figure S16) (SARS-CoV-2 3CL protease [4]; [7]): 90.7787 and 89.6887
- normalized activity, dose-response curve (Figure S16) (SARS-CoV-2 3CL protease [4]; [8]): 89.0003 and 83.5464
- normalized activity, dose-response curve (Figure S16) (SARS-CoV-2 3CL protease [4]; [9]): 84.4555 and 78.5499
- normalized activity, dose-response curve (Figure S16) (SARS-CoV-2 3CL protease [4]; [10]): 77.2102 and 70.0207
- normalized activity, dose-response curve (Figure S16) (SARS-CoV-2 3CL protease [4]; [11]): 64.1027 and 59.773
- normalized activity, dose-response curve (Figure S16) (SARS-CoV-2 3CL protease [4]; Concentration of inhibitor (nM) 2): 47.4055 and 42.8102
- normalized activity, dose-response curve (Figure S16) (SARS-CoV-2 3CL protease [4]; [12]): 16.7117 and 14.6768
- normalized activity, dose-response curve (Figure S16) (SARS-CoV-2 3CL protease [4]; [13]): 100.329 and 102.132
- normalized activity, dose-response curve (Figure S16) (SARS-CoV-2 3CL protease [4]; [14]): 100

Structure (SMILES): O=C(N[C@@H](CC1CC1)C(=O)N[C@@H](C[C@@H]1CCNC1=O)C(O)S(=O)(=O)O)OCc1ccccc1Cl (some centres unmarked) [NK01-69]
- inhibition of SARS-CoV-2 (Figure s17b dose-response, replicate values) (SARS-CoV-2 [2]): 112.139 and 77.9057 and 91.5513 and 79.8842 and 49.1022 and 70.5924 and 62.1924 and 62.9155 and 78.4113 and -0.7628 and 38.0643 and 11.5151 and -8.426 and 17.4096 and 4.8166 and -9.308 and 10.7894 and 11.3275 and 55.1502 and 29.5769 and 12.5491
- EC50 (SARS-CoV-2 [2]): 35 nM
- observed inactivation rate vs compound concentration (Figure S19, replicate values) (SARS-CoV-2 3CL protease [3]): 0.0682 and 0.0478 and 0.0347 and 0.0227 and 0.0119 and 0.047 and -0.00793 and 0.0043 and 0.0066 and 0.0454 and 0.0603 and 0.0339 and 0.0459 and 0.0266 and 0.0345 and 0.0301 and 0.0444 and 0.0675
- kinact/KI (SARS-CoV-2 3CL protease [3]): 70000 M⁻¹ s⁻¹
- IC50 (SARS-CoV-2 3CL protease [4]): 24 nM
- normalized activity, dose-response curve (Figure S16) (SARS-CoV-2 3CL protease [4]; [6]): 88.5666 and 86.5188
- normalized activity, dose-response curve (Figure S16) (SARS-CoV-2 3CL protease [4]; [7]): 72.8669 and 79.1809
- normalized activity, dose-response curve (Figure S16) (SARS-CoV-2 3CL protease [4]; [8]): 75 and 74.3174
- normalized activity, dose-response curve (Figure S16) (SARS-CoV-2 3CL protease [4]; [9]): 65.1024 and 60.8362
- normalized activity, dose-response curve (Figure S16) (SARS-CoV-2 3CL protease [4]; [10]): 47.5256 and 39.3345
- normalized activity, dose-response curve (Figure S16) (SARS-CoV-2 3CL protease [4]; [11]): 32.1672 and 24.5734
- normalized activity, dose-response curve (Figure S16) (SARS-CoV-2 3CL protease [4]; [12]): 4.608 and 4.693
- normalized activity, dose-response curve (Figure S16) (SARS-CoV-2 3CL protease [4]; [13]): 106.997 and 100.683
- normalized activity, dose-response curve (Figure S16) (SARS-CoV-2 3CL protease [4]; [14]): 89.5904 and 100

Structure (SMILES): O=C(Oc1cncc(Cl)c1)c1ccco1 [T71]
- Absorbance (crystal violet), SARS-CoV-2 3CLpro (SARS-CoV-2 3CL protease [5]): 0.16 and 0.1636
- % SARS-CoV-2 3CL activity (SARS-CoV-2 3CL protease [4]; log10[nM] 0.19382): 86.3659% and 89.8434%
- % SARS-CoV-2 3CL activity (SARS-CoV-2 3CL protease [4]; log10[nM] 0.49485): 80.2845% and 76.3012%
- % SARS-CoV-2 3CL activity (SARS-CoV-2 3CL protease [4]; log10[nM] 0.79588): 65.6694% and 65.2855%
- % SARS-CoV-2 3CL activity (SARS-CoV-2 3CL protease [4]; log10[nM] 1.09691): 47.7195% and 48.4083%
- % SARS-CoV-2 3CL activity (SARS-CoV-2 3CL protease [4]; log10[nM] 1.39794): 16.1844% and 18.9995%
- % SARS-CoV-2 3CL activity (SARS-CoV-2 3CL protease [4]; log10[nM] 1.69897): 0.4414% and 4.144%
- % SARS-CoV-2 3CL activity (SARS-CoV-2 3CL protease [4]; log10[nM] 2): -3.629% and 1.061%
- % SARS-CoV-2 3CL activity (SARS-CoV-2 3CL protease [4]; log10[nM] 2.30103): -2.6974% and 0.4042%
- % SARS-CoV-2 3CL activity (SARS-CoV-2 3CL protease [4]; log10[nM] 2.60206): -1.9127% and -0.758%
- % SARS-CoV-2 3CL activity (SARS-CoV-2 3CL protease [4]; log10[nM] 2.90309): 0%
- % SARS-CoV-2 3CL activity (SARS-CoV-2 3CL protease [4]; log10[nM] -0.10721): 95.0956% and 96.5639%
- % SARS-CoV-2 3CL activity (SARS-CoV-2 3CL protease [4]; log10[nM] -0.40824): 100%
- IC50 (SARS-CoV-2 3CL protease [4]): 11 nM
- Normalized SARS-CoV-2 3CL protease activity (SARS-CoV-2 3CL protease [4]): 0.04328 and 0.01902 and 0.03148

Structure (SMILES): O=C(/C=C/c1ccc(F)cc1)Oc1cc(Cl)c[nH]c1=O [Z14]
- Absorbance (crystal violet), SARS-CoV-2 3CLpro (SARS-CoV-2 3CL protease [5]): 0.1689 and 0.1739
- Normalized SARS-CoV-2 3CL protease activity (SARS-CoV-2 3CL protease [4]): 1.002 and 0.9823 and 0.9751

Structure (SMILES): CC(=O)N1CCc2cc(C(=O)Oc3cncc(Cl)c3)ccc21 [Z21]
- Absorbance (crystal violet), SARS-CoV-2 3CLpro (SARS-CoV-2 3CL protease [5]): 0.1721 and 0.1614
- Normalized SARS-CoV-2 3CL protease activity (SARS-CoV-2 3CL protease [4]): 0.2321 and 0.2984

Structure (SMILES): Cn1ncc(C(=O)Oc2cncc(Cl)c2)c1-n1cccc1 [Z26]
- Absorbance (crystal violet), SARS-CoV-2 3CLpro (SARS-CoV-2 3CL protease [5]): 0.1558 and 0.1505
- Normalized SARS-CoV-2 3CL protease activity (SARS-CoV-2 3CL protease [4]): 0.2302 and 0.2702 and 0.2695

Structure (SMILES): CC(=O)Nc1ccc(C(=O)Oc2cncc(Cl)c2)cc1 [Z32]
- Absorbance (crystal violet), SARS-CoV-2 3CLpro (SARS-CoV-2 3CL protease [5]): 0.1483 and 0.1499
- Normalized SARS-CoV-2 3CL protease activity (SARS-CoV-2 3CL protease [4]): 0.07213 and 0.1423 and 0.1862
